Results reported in a melting point compilation (Tetko et al.; mined from patent text by program, amines drawn as free bases though some values may be those of a salt).

| SMILES | melting point [°C] |
| --- | --- |
| CC(C)Oc1cc(CCC(=O)NS(C)(=O)=O)n(Cc2ccc(Cl)cc2Cl)n1 | 104 to 105 |
| NC(=O)[C@H]1CN(c2ccc(C3=NNC(=O)CS3)c(F)c2)C(=O)O1 | 249 to 251 |
| COc1ccc(C=CC(=O)O)cc1-c1cc2c(cc1OCCN1CCCCC1)C(C)(C)CCC2(C)C | 251 to 253 |
| CCOC(=O)c1cc2ccc(Cl)cc2n1C | 75.5 to 76.5 |
| CCCC(=O)c1cccc(NC(=O)C=C(C)Cl)c1 | 106 |
| CC1(C(=O)Nc2ccc(-n3nc(C(F)(F)F)cc3C(F)(F)F)cc2)CC1 | 109 to 110 |
| CCOc1cc(C=[N+]([O-])C2CCCCC2)ccc1OC | 114 |
| CC(C)=NOCc1nc2c(N)nc3ccccc3c2s1 | 152 to 153 |
| CC(=O)NC[C@H]1CN(c2ccc(N3CCC(n4nnc(N5CCN(C#N)CC5)n4)CC3)c(F)c2)C(=O)O1 | 208 to 210 |
| CC(C)C1COCc2nc3c(N)nc4c(c3n21)CCCC4 (stereo unspecified) | 158 to 160 |
| CN1CCN(Cc2nnc(S)n2Cc2cccc(F)c2)CC1 | 180 |
| CC(=O)NC[C@H]1CN(c2ccc(N3CCC(=C(C)C#N)CC3)cc2)C(=O)O1 | 94 to 96 |
| CCc1c(Sc2cc(Cl)cc(Cl)c2)c(CC#N)nn1CCO | 84 to 85 |
| COc1cc2c(cc1OC(C)C)-c1c(-c3cccs3)c3c(n1CC2)C(=O)N(C(C)C)CCNC3 | 242 to 243 |
| CN(C)C=CC(=O)c1cc(Cl)ccc1Cl | 83 to 85 |
| CC(=O)Oc1cc(OC(C)=O)c(C)c(C(=O)OCC(Cl)(Cl)Cl)c1C | 127 to 128 |
| COC(=O)C1=C[C@@H](OC(C)C)[C@H](NC(C)=O)[C@@H](CCO)C1 | 118 to 119 |
| CC(C)c1cc(S(N)(=O)=O)c(C(C)C)cc1C(=O)O | 225 to 231 |
| CCOC(=O)NC(C)C(=O)c1ccc(O)c(Cl)c1 (stereo unspecified) | 106 to 108 |
| CCCCCCCCCCC(O)CNCCNCC(O)CCCCCCCCCC (stereo unspecified) | 137 to 142 |
| C[C@H]1[C@H](c2ccccc2)N(C)C(=O)N1C(=O)NC1CCCCC1 (relative stereo) | 108 |

| SMILES | melting point [°C] |
| --- | --- |
| CC(=O)N1CCc2ccc(Cl)cc2C(c2ccc([N+](=O)[O-])cc2)=N1 | 227 to 229 |
| COc1ccc(C2(c3ccc(OC)cc3)C(Cl)(Cl)C23CCCCC3)cc1 | 121 to 122 |
| Fc1ccc(-c2ccc(C3OCCO3)cc2)cc1F | 89 to 91 |
| COc1cc2sc(C)nc2cc1C | 89 to 90 |
| CCNc1nc(OC)c(C(=O)NCC2CCCN2C2CCCCC2)nc1Cl (stereo unspecified) | 164 to 165 |
| NC(=NCC(F)(F)F)Nc1nc(CCCCNc2nc3ccccc3[nH]2)cs1 | 183 to 186 |
| CCc1ncnc(O)c1I | 191 to 192 |
| CCOn1c(C)nc(N2CCc3ccccc3CC2)c(C#N)c1=O | 149 to 152 |
| CN(Cc1cnc(Cl)s1)C(=N)N[N+](=O)[O-] | 116 to 117 |
| CCCn1nc(C(N)=O)cc1CC(C)C | 141 to 142 |
| CNCC1CCN(c2c(F)cc3c(=O)c(C(=O)O)cn4c3c2OCC4C)C1 (stereo unspecified) | 235 to 238 |
| COc1ccc(S(=O)(=O)CC(=O)C(C)C)cc1 | 48 to 49.5 |
| O=C1Nc2ccc(-c3cccnc3)cc2C12CCCCC2 | 232 to 234 |
| O=C(C1CCCCCC1)N1c2ccccc2CCC1CN1CCN(c2cccc3[nH]ccc23)CC1 (stereo unspecified) | 167 to 173 |
| C[C@H]1[C@@H](CO)CCN1c1ccc(C#N)c2ccccc12 | 158 to 159 |
| CCSC1CCC2C3CCC4=CC(=O)C=CC4(C)C3(F)C(O)CC12C (stereo unspecified) | 196 to 197 |
| OC[C@@H]1CC[C@H]2CN(c3ncc(F)cn3)CCN2C1 | 148 to 150 |
| CC(=O)OCC(COCn1cnc2c(=O)[nH]c(N)nc21)OC(C)=O (stereo unspecified) | 222 to 224 |
| Cc1cc(NN)nc(-c2ccncc2)n1 | 150 to 152 |
| CN1C(=O)C(C)(C)N=C(c2ccccc2F)c2cc(N)cc(Cl)c21 | 169 to 172 |

Results, then the compound that gave them:

| melting point [°C] | SMILES |
| --- | --- |
| 175 | CCCCc1ncc(CC(Cc2cccs2)C(=O)O)n1Cc1ccc(C(=O)O)cc1 (stereo unspecified) |
| 196 to 198 | Nc1cccc(Cn2c(-c3ccc(NC(=O)c4ccccc4)cc3)ccc2-c2ccccc2Cl)n1 |
| 138 | COc1ccc(S(=O)(=O)N(CCCO)c2ccc(Cl)cc2Cc2c(F)cccc2F)cc1OC |
| 115 to 118 | O=C(c1ccc(-c2cccc3ccccc23)cc1Cl)N1Cc2cccn2Cc2ccccc21 |
| 228 to 229 | Cc1cc(Nc2ccc(C(F)(F)F)cc2C(=O)O)n(-c2ccccn2)n1 |
| 130 to 134 | Cc1cc(Nc2cccc(C(F)(F)F)c2)nc(-n2nc(C)cc2C)n1 |
| 192 to 194 | COc1cc(OC)cc(-c2ncoc2-c2ccc(OC(F)(F)F)c(O)c2)c1 |
| 191 | Cc1cccc(NC(=O)NC(CCC(=O)O)C(=O)N(CC(=O)OC(C)(C)C)c2ccccc2)c1 (racemic) |
| 156 to 158 | COc1ccc(NS(C)(=O)=O)nc1 |
| 171 to 174 | COCCc1nc2c(N)nc3ccccc3c2n1CCOCCN(C(N)=O)c1ccccc1 |
| 265 to 267 | Cc1nc(-n2ccc(-c3ccc(Cl)cc3)cc2=O)sc1C(=O)NCc1ccccc1 |
| 100 to 104 | O=C1C(CCO)Oc2cc([N+](=O)[O-])ccc2N1Cc1ccc([N+](=O)[O-])cc1 (stereo unspecified) |
| 140 to 142 | Nc1ccccc1C(=O)NO |
| 219 to 221 | O=C(NCC1CC(=O)N(Cc2ccccc2)c2ccccc2N1C(=O)CN1C(=O)c2ccccc2C1=O)OCc1ccccc1 (stereo unspecified) |
| 213 to 214 | Cc1cc(-c2nc3cccnn3c2-c2ccnc(NC(=O)NCC(C)C)c2)ccc1F |
| 143 to 144 | CCCCc1nc2c(N)nc3ccccc3c2n1CCCNC(=S)Nc1ccccc1 |
| 84 to 85 | COc1ccc(O[C@@H]2CN(Cc3ccccc3)C[C@H]2O)cc1 (relative stereo) |
| 92 to 94 | COC(=O)COc1ccc(SCc2cc(-c3ccc(Cl)cc3)no2)c2c1CCC2 |
| 170 to 172 | Fc1cc(F)c(-c2cncn2-c2ccc(Cl)cc2)c(F)c1 |
| 165 to 177 | Cc1ccccc1C(=O)CN1C(=O)C(NC(=O)Nc2cccc(-c3nnn[nH]3)c2)N=C(C2CCCCC2)c2cccc(C)c21 (stereo unspecified) |
| 110 to 111 | COc1ccc(OC)c2c(C#C[Si](C)(C)C)c3ccccc3nc12 |
| 141 to 142 | CC(c1ccccc1OCCCC(=O)O)N(c1cc(F)ccc1F)S(=O)(=O)c1ccc(Cl)cc1 (stereo unspecified) |
| 180 to 181 | O=C(NCc1ccccc1)c1ccnc(NC(=O)c2cc(F)ccc2Cl)c1 |
| 142 to 148 | COC(=O)c1cc2cc(OC)c(OC)cc2c(-c2ccnc(-n3c(=O)cc(NCCCn4ccnc4)c4ccccc43)c2)c1C(=O)OC |
| 205 | CCCC(=O)NC(=O)C(c1ccccc1)c1ccccc1 |
| 121 to 122 | O=C(CCNC(=O)OCc1ccccc1)NCCSC(=O)OCc1ccccc1 |
| 285 to 289 | CC(C)[C@H](NC(=O)/C=C/c1cccnc1)C(=O)N[C@@H](Cc1ccccc1)[C@@H](O)[C@H](O)[C@H](Cc1ccccc1)NC(=O)[C@@H](NC(=O)/C=C/c1cccnc1)C(C)C |
| 98 to 100 | Cc1cc2c(cc1C)C(C)(C)N(Cc1ccccc1)C2(C)C |

| melting point [°C] | SMILES |
| --- | --- |
| 208 | O=C(Nc1ccc2ccc(-c3cccc(F)c3)nc2n1)c1cccc(Br)c1 |
| 123 to 126 | O=S(=O)(c1ccccc1)N1CCC(C(=NCCc2ccccc2)c2ccc(F)cc2)CC1 |
| 135 to 138 | O=C(Nc1cccc([N+](=O)[O-])c1)C(=O)N1CCC(Cc2ccc(F)cc2)CC1 |
| 107 to 109 | CSc1cccc(Oc2ncccc2C(=O)NCc2ccc(C(C)(C)O)cc2)c1 |
| 164 to 165 | CSC(=NCc1ccc(CCO)cc1)NC#N |
| 143 to 144 | Cc1cc(C(F)(F)C(F)(F)F)ccc1NC(=O)c1cccc(I)c1C(=O)NC(C)(C)CS(C)(=O)=O |
| 180 to 182 | CS(=O)c1ccc(-c2c(-c3ccncc3)nc3n2CCC3)cc1 (stereo unspecified) |
| 199 to 203 | O=C(CCSCCC(=O)Nc1ccc(Nc2ccccc2)cc1)Nc1ccc(Nc2ccccc2)cc1 |
| 162 to 165 | Cc1nc(Nc2ccccc2)sc1C(=O)c1ccc(Cl)c([N+](=O)[O-])c1 |
| 201 | O=S(=O)(NCCc1ccccc1)c1cccc(-c2cc(-c3nc(-c4ccc(C(F)(F)F)cc4)cc(C(F)(F)F)n3)ccn2)c1 |
| 182 to 183 | OCC1OC(n2cnc3c(NCc4ccccc4Cl)ncnc32)C(O)C1O (stereo unspecified) |
| 115 to 116 | CSc1nnc2ccc3ccccc3n12 |
| 127 to 130 | CC(C=Cc1ccc(C(=O)O)cc1)c1ccccc1 (stereo unspecified) |
| 150 to 152 | COc1ccc(CCNC(=O)CC=CCC(=O)NCCc2ccccc2)cc1OC |
| 116 to 120 | CC(C)C[C@H](NC(=O)c1ccc(Cl)cc1)C(=O)N[C@@H](C(C)C)[C@@H](O)c1c(-c2ccccc2)c1=O |
| 120 to 124 | CCCC(O)c1cnc2nc(C)c(OCC)cc2c1Nc1ccc(OC)cc1 (stereo unspecified) |
| 189 | CC(C)(CN1CCC(CNC(=O)N2C(=O)C3(CCCC3)c3ccccc32)CC1)C(=O)O |
| 144 to 145 | O=C(C(=O)c1cccc(C#Cc2ccccc2)c1)c1cccc(C#Cc2ccccc2)c1 |
| 138 to 140 | COCCOC(=O)Nc1cccc(C)c1CNc1cccn2c(CO)c(C)nc12 |
| 205 to 207 | COc1ccc(-n2nc(Sc3ccc(-c4ccccc4)cc3)c(C)c(C#N)c2=O)cc1 |
| 146 | O=C(Nc1ccccc1C(F)(F)F)c1ccccc1 |
| > 250 | COC(=O)c1cccc2[nH]c(Sc3cccc4c(=O)cc[nH]c34)nc12 |
| 74 to 75 | O=C(c1ccc(Cl)cc1)C(CC1OCCO1)Sc1ccccc1 (stereo unspecified) |
| 151 to 152 | O=C(N[C@H](Cc1cccc(OC(F)(F)C(F)F)c1)[C@@H](O)c1cccc(F)n1)c1cccc2c1C=CCCC2 (racemic) |
| 187 to 189 | OCc1ccc(-c2ccc3nnn(Cc4ccc5ncccc5c4)c3n2)cc1 |
| 174 | COc1ccc(-c2cccc(OC3SCC(O)C(O)C3O)c2)cn1 (stereo unspecified) |
| 77.5 to 78.5 | CC(C)(C)OC(=O)N(OCc1ccccc1)C(=O)OC(C)(C)C |
